Patent US4564627A, “Feed composition” (Nihon Nohyaku Co., Ltd., priority 1982, dated 1986)

Assays:
[1] = LD50 mouse (male); settings: in vivo
From the text: Examples of the compounds represented by the general formula [1] according to this invention and their toxicities are shown below.

[2] = Growth of body weight of broilers (Test Example 1); assay type: in vivo, "A A Fuji" broilers (chicken); settings: for Body weight at week age 0: week age 0 (before addition); for Body weight at week age 3: week age 3 (start of addition)
Method: (§1) To each group consisting of 30 "A A Fuji" broilers (15 male, 15 female), a commercially available early period broiler feed (crumble form, Cp 22%, ME 3,030 kcal/kg) was given from beginning of feeding to 4 week age, and a latter period broiler feed (mash form, Cp 18%, ME 3,030 kcal/kg) was given ad libitum from 4 week age to 10 week age. The test period was from Oct. 10, 1981 through Dec. 20, 1981. Addition of test compounds to the above feeds in predetermined concentrations was conducted from 3 week age through the completion of the test.
(1) Growth of body weight
[…] All broilers were measured and an average body weight was calculated for each group.

[3] = test system: broilers; assay: Abdominal fat deposit of broilers (Test Example 1); assay type: in vivo, "A A Fuji" broilers (chicken)
Method: as §1
(§2) Five broilers at 6 week age, five broilers at 8 week age and ten broilers at 10 week age were taken out from each group and slaughtered. Immediately after slaughtering, they were cooled in water for about 2 hr and the body weight of each slaughtered broiler was measured and subsequently they were stored at 2° C. for about 20 hr. Then, in order to measure abdominal fat, mesentary fat was removed and fat adhered to from gizzard to proventriculus was collected and weighed as the weight of abdominal fat. This weight was divided by body weight to obtain abdominal fat deposit per 100 g of body weight. Further, liver fat was also collected and weighed. A liver under freeze storage was cut into slices in a total quantity of 2 to 3 g. The slices were placed in a cylindrical filter paper and weighed. Then, these slices were dried for 3 hr in a hot air drier kept at 90° C. and subsequently extracted for 17 hr with ethyl ether in a Soxhlet fat extractor. After drying the extract for 3 hr at 60° C. and weighing the residue, crude fat content in liver was calculated.

[4] = test system: broilers; assay: Crude fat content in liver of broilers (Test Example 1); assay type: in vivo, "A A Fuji" broilers (chicken)
Method: as §1, §2

[5] = test system: laying hens; assay: Thickness of eggshell of laying hens (Test Example 2); assay type: in vivo
From the text: (§3) As test hens, commercially available laying hens of 480 day age were used. The control group fed with a feed not containing any compound of this invention consisted of 100 laying hens, and each test group fed with a feed containing a compound of this invention consisted of 10 laying hens. The test was repeated twice. The test period was 16 weeks from Nov. 17, 1981 to Mar. 8, 1982. The first 4 weeks from the start was a preliminary observation period, during which each group was controlled so as to give the same egg production rate. As the feed, a commercially available feed for laying hens (Cp 16% or above, ME 2,800 kcal/kg or above) was used. From the 5th week, predetermined quantities of test compounds were uniformly added to this feed and the resulting blended feeds were given to test groups. Feeds and water were given ad libitum. Constant lighting was made for 14 hr a day. Egg production rate was daily recorded for each individual hen and egg weight for each test group. Feed intake quantity was obtained by calculating on every other week a difference between quantity fed and quantity left. For examining egg quality, strength of eggshell and thickness of eggshell were measured for all normal eggs laid during a period of the previous day of measurement to 3 P.M. of the measurement day. Strength of eggshell was measured by a FHK eggshell strength tester model FN-597, and thickness of eggshell by a dial thickness gauge.

[6] = test system: laying hens; assay: Strength of eggshell of laying hens (Test Example 2); assay type: in vivo
From the text: as §3

CC(C)OC(=O)C(C(=O)OC(C)C)=C1SCCS1 [compound 6]
LD50 [1]: 1350 mg/kg | Body weight at week age 0 ([2]; 100 ppm in feed from 3 week age): 41 g | Body weight at week age 0 ([2]; 200 ppm in feed from 3 week age): 41 g | Body weight at week age 0 ([2]; 400 ppm in feed from 3 week age): 41 g | Body weight at week age 0 ([2]; 800 ppm in feed from 3 week age): 41 g | Body weight at week age 0 ([2]; 1,600 ppm in feed from 3 week age): 41 g | Body weight at week age 3 ([2]; 100 ppm in feed): 628 g | Body weight at week age 3 ([2]; 200 ppm in feed): 623 g | Body weight at week age 3 ([2]; 400 ppm in feed): 624 g | Body weight at week age 3 ([2]; 800 ppm in feed): 622 g | Body weight at week age 3 ([2]; 1,600 ppm in feed): 624 g | Body weight at week age 4 ([2]; 100 ppm in feed): 978 g | Body weight at week age 4 ([2]; 200 ppm in feed): 983 g | Body weight at week age 4 ([2]; 400 ppm in feed): 984 g | Body weight at week age 4 ([2]; 800 ppm in feed): 981 g | Body weight at week age 4 ([2]; 1,600 ppm in feed): 980 g | Body weight at week age 5 ([2]; 100 ppm in feed): 1,326 g | Body weight at week age 5 ([2]; 200 ppm in feed): 1,340 g | Body weight at week age 5 ([2]; 400 ppm in feed): 1,338 g | Body weight at week age 5 ([2]; 800 ppm in feed): 1,332 g | Body weight at week age 5 ([2]; 1,600 ppm in feed): 1,328 g | Body weight at week age 6 ([2]; 100 ppm in feed): 1,672 g | Body weight at week age 6 ([2]; 200 ppm in feed): 1,662 g | Body weight at week age 6 ([2]; 400 ppm in feed): 1,652 g | Body weight at week age 6 ([2]; 800 ppm in feed): 1,657 g | Body weight at week age 6 ([2]; 1,600 ppm in feed): 1,663 g | Body weight at week age 7 ([2]; 100 ppm in feed): 2,602 g | Body weight at week age 7 ([2]; 200 ppm in feed): 2,108 g | Body weight at week age 7 ([2]; 400 ppm in feed): 2,112 g | Body weight at week age 7 ([2]; 800 ppm in feed): 2,063 g | Body weight at week age 7 ([2]; 1,600 ppm in feed): 2,102 g | Body weight at week age 8 ([2]; 100 ppm in feed): 2,492 g | Body weight at week age 8 ([2]; 200 ppm in feed): 2,487 g | Body weight at week age 8 ([2]; 400 ppm in feed): 2,505 g | Body weight at week age 8 ([2]; 800 ppm in feed): 2,501 g | Body weight at week age 8 ([2]; 1,600 ppm in feed): 2,483 g | Body weight at week age 9 ([2]; 100 ppm in feed): 2,880 g | Body weight at week age 9 ([2]; 200 ppm in feed): 2,873 g | Body weight at week age 9 ([2]; 400 ppm in feed): 2,865 g | Body weight at week age 9 ([2]; 800 ppm in feed): 2,858 g | Body weight at week age 9 ([2]; 1,600 ppm in feed): 2,864 g | Body weight at week age 10 ([2]; 100 ppm in feed): 3,107 g | Body weight at week age 10 ([2]; 200 ppm in feed): 3,112 g | Body weight at week age 10 ([2]; 400 ppm in feed): 3,086 g | Body weight at week age 10 ([2]; 800 ppm in feed): 3,024 g | Body weight at week age 10 ([2]; 1,600 ppm in feed): 3,033 g | Abdominal fat deposit ([3]; 6w, 100 ppm in feed): 3.23 g/100 g | Abdominal fat deposit ([3]; 6w, 200 ppm in feed): 3.24 g/100 g | Abdominal fat deposit ([3]; 6w, 400 ppm in feed): 3.08 g/100 g | Abdominal fat deposit ([3]; 6w, 800 ppm in feed): 3.14 g/100 g | Abdominal fat deposit ([3]; 6w, 1,600 ppm in feed): 3.04 g/100 g | Abdominal fat deposit ([3]; 8w, 100 ppm in feed): 3.72 g/100 g | Abdominal fat deposit ([3]; 8w, 200 ppm in feed): 3.64 g/100 g | Abdominal fat deposit ([3]; 8w, 400 ppm in feed): 3.38 g/100 g | Abdominal fat deposit ([3]; 8w, 800 ppm in feed): 3.35 g/100 g | Abdominal fat deposit ([3]; 8w, 1,600 ppm in feed): 3.32 g/100 g | Abdominal fat deposit ([3]; 10w, 100 ppm in feed): 4.18 g/100 g | Abdominal fat deposit ([3]; 10w, 200 ppm in feed): 4.03 g/100 g | Abdominal fat deposit ([3]; 10w, 400 ppm in feed): 3.97 g/100 g | Abdominal fat deposit ([3]; 10w, 800 ppm in feed): 3.85 g/100 g | Abdominal fat deposit ([3]; 10w, 1,600 ppm in feed): 3.78 g/100 g | Crude fat content in liver ([4]; 6w, 100 ppm in feed): 2.23% | Crude fat content in liver ([4]; 6w, 200 ppm in feed): 2.03% | Crude fat content in liver ([4]; 6w, 400 ppm in feed): 2.15% | Crude fat content in liver ([4]; 6w, 800 ppm in feed): 2.14% | Crude fat content in liver ([4]; 6w, 1,600 ppm in feed): 2.08% | Crude fat content in liver ([4]; 8w, 100 ppm in feed): 5.51% | Crude fat content in liver ([4]; 8w, 200 ppm in feed): 4.97% | Crude fat content in liver ([4]; 8w, 400 ppm in feed): 4.53% | Crude fat content in liver ([4]; 8w, 800 ppm in feed): 4.26% | Crude fat content in liver ([4]; 8w, 1,600 ppm in feed): 4.32% | Crude fat content in liver ([4]; 10w, 100 ppm in feed): 5.09% | Crude fat content in liver ([4]; 10w, 200 ppm in feed): 4.33% | Crude fat content in liver ([4]; 10w, 400 ppm in feed): 4.26% | Crude fat content in liver ([4]; 10w, 800 ppm in feed): 4.33% | Crude fat content in liver ([4]; 10w, 1,600 ppm in feed): 4.32% | Eggshell thickness ([5]; 509th day, 5 ppm in feed): 0.328 mm | Eggshell thickness ([5]; 509th day, 25 ppm in feed): 0.345 mm | Eggshell thickness ([5]; 509th day, 125 ppm in feed): 0.343 mm | Eggshell thickness ([5]; 509th day, 625 ppm in feed): 0.325 mm | Eggshell thickness ([5]; 555th day, 5 ppm in feed): 0.341 mm | Eggshell thickness ([5]; 555th day, 25 ppm in feed): 0.345 mm | Eggshell thickness ([5]; 555th day, 125 ppm in feed): 0.340 mm | Eggshell thickness ([5]; 555th day, 625 ppm in feed): 0.346 mm | Eggshell thickness ([5]; 612th day, 5 ppm in feed): 0.344 mm | Eggshell thickness ([5]; 612th day, 25 ppm in feed): 0.341 mm | Eggshell thickness ([5]; 612th day, 125 ppm in feed): 0.342 mm | Eggshell thickness ([5]; 612th day, 625 ppm in feed): 0.348 mm | Eggshell strength ([6]; 509th day, 5 ppm in feed): 2.40 kg | Eggshell strength ([6]; 509th day, 25 ppm in feed): 2.47 kg | Eggshell strength ([6]; 509th day, 125 ppm in feed): 2.39 kg | Eggshell strength ([6]; 509th day, 625 ppm in feed): 2.42 kg | Eggshell strength ([6]; 555th day, 5 ppm in feed): 2.75 kg | Eggshell strength ([6]; 555th day, 25 ppm in feed): 2.88 kg | Eggshell strength ([6]; 555th day, 125 ppm in feed): 2.95 kg | Eggshell strength ([6]; 555th day, 625 ppm in feed): 3.01 kg | Eggshell strength ([6]; 612th day, 5 ppm in feed): 2.74 kg | Eggshell strength ([6]; 612th day, 25 ppm in feed): 2.99 kg | Eggshell strength ([6]; 612th day, 125 ppm in feed): 3.11 kg | Eggshell strength ([6]; 612th day, 625 ppm in feed): 3.07 kg
